Test results taken from patent US11103497B2, “Treatment of imatinib resistant leukemia” (Wyeth LLC, priority 2007, dated 2021).

Details: not given

| SMILES | melting point [°C] |
| --- | --- |
| CCOc1cc2c(Nc3cc(OC)c(Cl)cc3Cl)c(C#N)cnc2cc1OCCC1CCN(C)CC1 [Example 15, 4-[(2,4-Dichloro-5-methoxyphenyl)amino]-6-ethoxy-7-[2-(1-methylpiperidin-4-yl)ethoxy]quinoline-3-carbonitrile] | 174 to 176 |
| CCOc1cc2c(Nc3cc(OC)c(Cl)cc3Cl)c(C#N)cnc2cc1OCCCN1CCN(C)CC1 [Example 10, 4-[(2,4-Dichloro-5-methoxyphenyl)amino]-6-ethoxy-7-[3-(4-methylpiperazin-1-yl)propoxy]quinoline-3-carbonitrile] | 137 to 138 |
| CCN1CCC(COc2cc3ncc(C#N)c(Nc4cc(OC)c(Cl)cc4Cl)c3cc2OC)CC1 [Example 9, 4-[(2,4-Dichloro-5-methoxyphenyl)amino]-7-[(1-ethylpiperidin-4-yl)methoxy]-6-methoxyquinoline-3-carbonitrile] | 192 to 195 |
| CCOc1cc2c(Nc3cc(OC)c(Cl)cc3Cl)c(C#N)cnc2cc1OCCCC1CCN(C)CC1 [Example 13, 4-[(2,4-Dichloro-5-methoxyphenyl)amino]-6-ethoxy-7-[3-(1-methylpiperidin-4-yl)propoxy]quinoline-3-carbonitrile] | 148 to 151 |
| CCOc1cc2c(Nc3cc(OC)c(Cl)cc3Cl)c(C#N)cnc2cc1OCCN1CCN(C)CC1 [Example 14, 4-[(2,4-Dichloro-5-methoxyphenyl)amino]-6-ethoxy-7-[2-(4-methyl-1-piperazinyl)ethoxy]quinoline-3-carbonitrile] | 141 to 143 |
| CCOc1cc2c(Nc3cc(OC)c(Cl)cc3Cl)c(C#N)cnc2cc1OCCCN1CCN(CC)CC1 [Example 12, 4-[(2,4-Dichloro-5-methoxyphenyl)amino]-6-ethoxy-7-[3-(4-ethylpiperazin-1-yl)propoxy]quinoline-3-carbonitrile] | 127 to 130 |
| COc1cc(Nc2c(C#N)cnc3cc(OCCN4CCN(C)CC4)c(OC)cc23)c(Cl)cc1Cl [Example 4, 4-[(2,4-Dichloro-5-methoxyphenyl)amino]-6-methoxy-7-[2-(4-methyl-1-piperazinyl)ethoxy]-3-quinolinecarbonitrile] | 165 to 167 |

Details: patients; cited from earlier work

| SMILES | adverse effects |
| --- | --- |
| Cc1nc(Nc2ncc(C(=O)Nc3c(C)cccc3Cl)s2)cc(N2CCN(CCO)CC2)n1 [Dasatinib] | hematologic toxicity and edema |
